Test results reported in the supplement of paper PMC10307832.

Columns and labels:
Assay in all cases: relative viability (nuclei count vs DMSO), 5 days (fraction); higher = more cells survive
[1] = compound: C#Cc1cccc(Nc2ncnc3cc(OC)c(OCCCCCCC(=O)NO)cc23)c1 [CUDC-101] + Cc1nc(NC(=O)N2CCC[C@H]2C(N)=O)sc1-c1ccnc(C(C)(C)C(F)(F)F)c1 [Alpelisib] (partner 2 µM)
Summary of the method: (§1)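 A single step with final 0.05% Triton X-100, 1% formaldehyde and 1 ug/ml Hoechst fixed the cells and stained nuclei 5 days after treatment. Lung cancer cell lines in 1536-well plates had been treated by pin tool the day after seeding with one drug alone or a fixed anchor-drug dose plus five library-drug doses (not always all listed) in √10 steps, and nuclei were counted on 4× images. Relative viability is the ratio of nuclei in treated wells to nuclei in vehicle wells, taken as the median of duplicate plates.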

[2] = compound: COc1cc(N2CCC(N3CCN(C)CC3)CC2)ccc1Nc1ncc(Cl)c(Nc2ccccc2S(=O)(=O)C(C)C)n1 [NVP-TAE684] + NC(=O)Nc1cc(-c2cccc(F)c2)sc1C(=O)N[C@H]1CCCNC1 [AZD7762] (partner 0.2 µM)
Summary of the method: as §1

[3] = compound: COc1cc(N2CCC(N3CCN(C)CC3)CC2)ccc1Nc1ncc(Cl)c(Nc2ccccc2S(=O)(=O)C(C)C)n1 [NVP-TAE684] + CCNC(=O)c1noc(-c2cc(C(C)C)c(O)cc2O)c1-c1ccc(CN2CCOCC2)cc1 [Luminespib] (partner 0.01 µM)
Summary of the method: as §1

[4] = compound: C1=CC=C2C(=C1)N=C(S2)C(C#N)C3=NC(=NC=C3)NCCC4=CN=CC=C4 + C[C@@H](Oc1cc(-c2cnn(C3CCNCC3)c2)cnc1N)c1c(Cl)ccc(F)c1Cl [Crizotinib] (partner 1 µM)
Summary of the method: as §1

[5] = compound: COc1cc(N2CCC(N3CCN(C)CC3)CC2)ccc1Nc1ncc(Cl)c(Nc2ccccc2S(=O)(=O)C(C)C)n1 [NVP-TAE684] + C[C@]1(O)C[C@@H](c2nc(-c3ccc4ccc(-c5ccccc5)nc4c3)c3c(N)nccn32)C1 [Linsitinib] (partner 1 µM)
Summary of the method: as §1

Cell Line	relative viability ([1]; first compound 0.01 µM)	relative viability ([1]; first compound 0.03162 µM)	relative viability ([1]; first compound 0.1 µM)	relative viability ([1]; first compound 0.3162 µM)	relative viability ([1]; first compound 1 µM)	relative viability ([2]; first compound 0.2 µM)	relative viability ([2]; first compound 0.6325 µM)	relative viability ([2]; first compound 2 µM)	relative viability ([3]; first compound 0.2 µM)	relative viability ([3]; first compound 0.6325 µM)	relative viability ([3]; first compound 2 µM)	relative viability ([4]; first compound 0.005 µM)	relative viability ([4]; first compound 0.01581 µM)	relative viability ([4]; first compound 0.05 µM)	relative viability ([4]; first compound 0.1581 µM)	relative viability ([4]; first compound 0.5 µM)	relative viability ([5]; first compound 0.2 µM)	relative viability ([5]; first compound 0.6325 µM)	relative viability ([5]; first compound 2 µM)
HCC-827	0.958	0.27	0.224	0.187	0.179	0.193	0.177	0.18	0.52	0.613	0.65	0.874	0.945	0.907	0.958	0.905	0.978	1.01	0.973
HOP-62	0.777	0.792	1.11	1.05	0.741	0.898	0.611	0.525	1.03	0.816	0.882	0.779	0.815	0.675	1.01	0.725	0.97	0.963	0.755
LC-2-ad	0.896	0.908	0.844	0.73	0.433	0.808	0.818	0.427	1.01	0.918	0.465	0.413		0.425	0.502	0.414	0.842	0.771	0.218
LCLC-97TM1	0.261	0.266	0.235	0.233	0.15	0.283	0.2	0.194	0.706		0.128	0.28	0.394	0.368	0.326	0.256	0.136	0.189	0.136
LCLC-103H	0.93	0.95	1.01	1.02	0.953	0.877	0.771	0.664	0.918	0.923	0.61	1.12	1.03	1	1.13	0.964	1.06	1.23	1.15
LK-2	1.08	0.959	1.09	1.05	0.647	0.49	0.268	0.129	0.169	0.157	0.167			0.216	0.209	0.238	0.708	0.659	0.623
LOU-NH91	0.652	0.533	0.509	0.574	0.482	0.782	0.425	0.532	0.305	0.339	0.296	0.709	0.786	0.689	0.695	0.685	0.936	0.832	0.665
LU99A	0.584	0.603	0.518	0.433	0.263	0.342	0.402	0.265	0.301	0.259	0.253	0.457	0.686	0.599	0.599	0.51	0.614	0.558	0.445
LXF-289	0.991	1.08	0.994	1.07	0.815	0.939	1.11	1.07	0.583	0.776	0.425	0.761	0.798	0.831	0.869	0.798	0.937	1.01	0.822
NCI-H23	0.775	0.592	0.727	0.652	0.718	0.24	0.209	0.151	0.225	0.21	0.204		0.602	0.433	0.544	0.35	0.533	0.584	0.509
NCI-H322M	0.775	0.704	0.725	0.733	0.725	0.553	0.599	0.453	0.779	0.751	0.432	0.845	0.85	0.953	0.891	0.796	0.805	0.862	0.872
NCI-H358	1.21	0.871	0.926	0.71	0.415	0.55	0.298	0.225	0.25	0.337	0.115	0.678	0.539	0.533	0.621	0.609	0.73	0.488	0.274
NCI-H441	0.842	0.847	0.879	0.589	0.572	1.12	1.04	0.598	0.315	0.313	0.36		0.486	0.691	0.834	0.554	0.521	0.627	0.472
NCI-H460	0.478	0.42	0.589	0.443	0.465	0.767	0.568	0.591	0.0418	0.0325	0.0305		0.908	0.71	0.873	0.902	0.732	0.911	0.298
NCI-H596	0.463	0.395	0.481	0.465	0.512	1.03	0.988	0.839	0.914	0.832	0.758	0.864	1.03	0.939	1.16	0.952	1.06		0.688
NCI-H647	1.48	1.14	1.33	1.18	0.794	0.41	0.408	0.201	0.133	0.108	0.264		1	0.89	1.38	0.874	1.49	1.09	0.522
